Data reported in patent US5523297A, “Inhibition of excessive phospholipase A2 activity and/or production by non-antimicrobial tetracyclines” (The Research Foundation of State University of New York, priority 1995, dated 1996).
Like-named read-outs stand apart in the source and are kept apart here.

Experiments:
Type in all cases: biochemical
human pancreatic PLA2 = biological target: T1, human pancreatic PLA2 (Homo sapiens, UniProt P04054); assay: Inhibition of human pancreatic PLA2, E. coli assay
T1 construct: radiolabelled E. coli membrane hydrolysis assay
Description: (§1) Six different chemically-modified tetracyclines, including CMT-1 (4-dedimethylaminotetracycline), CMT-2 (tetracyclinonitrile), CMT-3 (6-demethyl-6-deoxy-4-dedimethylaminotetracycline), CMT-4 (4-de-dimethylamino-7-chloro-tetracycline), CMT-5 (pyrazole analog) and CMT-6 (4-hydroxy-4-dedimethylaminotetracycline), were examined for their ability to inhibit PLA2 activity in vitro. The sources of PLA2 that were tested included recombinant human PLA2, human pancreatic and porcine pancreatic PLA2 and Naja naja PLA2. […] Various concentrations of CMTs, ranging from 5-100 μg/ml, were preincubated with the different PLA2 enzymes for 30 minutes and the mixture was tested for PLA2 activity using a known E. coli assay method (see Arthritis and Rheumatism, 34 Supp. 9: p. S160 (abst C167)).
(§2) A chemically-modified tetracycline, 4-dedimethylamino-7-dimethylaminotetracycline (CMT-10), was examined for its ability to inhibit PLA2 activity in vitro. The sources of PLA2 that were tested included were recombinant human PLA2 (snpPLA2), human pancreatic and porcine pancreatic PLA2 and Naja naja PLA2. […] Various concentrations of CMT-10, ranging from 5-100 μg/ml, were preincubated with the different PLA2 enzymes for 30 minutes and the mixture was tested for PLA2 activity using a known E. coli assay method (see Arthritis and Rheumatism, 34 Supp. 9: p. S160 (abst C167)).
(§3) In particular, [^14 C]Oleic acid-labelled Escherichia coli (strain K12 C600) were used as the substrate. This substrate has been characterized with respect to phospholipid composition and distribution of radiolabel. Reaction mixtures contained 10 mg bovine serum albumin, 2 mM CaCl2, 2.8×10^8 radiolabelled E. coli and 0.1M Tris-HCl buffer, pH 7.5 in a total volume of 1.5 ml. Reaction mixtures were incubated at 37° C. for 30 min. The reaction was terminated by filtration through a 0.45 μm Millipore filter, thereby retaining unhydrolysed E. coli membranes, and allowing the [^14 C]oleic acid bound to the BSA carrier, released as a result of PLA2 hydrolysis, to pass through the filter. Assays were performed in duplicate and values shown represent the mean of two determinations with a SD<5% of the mean. Assays were performed in substrate excess and enzyme activities were corrected for non-enzymatichydrolysis. One unit of PLA2 activity is defined as the hydrolysis of 56 pmol of phospholipid substrate (representing 1% of total E. coli phospholipid) in 30 min at 37° C.

[1] = biological target: T2, recombinant human PLA2 (snpPLA2) (Homo sapiens, UniProt P14555); assay: Inhibition of recombinant human PLA2, radiolabelled E. coli assay
T2 sequence (P14555 21-144): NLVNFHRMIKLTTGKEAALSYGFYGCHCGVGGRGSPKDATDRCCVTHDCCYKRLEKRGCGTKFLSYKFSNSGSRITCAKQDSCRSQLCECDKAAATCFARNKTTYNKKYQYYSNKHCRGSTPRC
Description: as §1, §2, §3

porcine pancreatic PLA2 = biological target: T3, porcine pancreatic PLA2 (Sus scrofa, UniProt P00592); assay: Inhibition of porcine pancreatic PLA2, E. coli assay
T3 construct: radiolabelled E. coli membrane hydrolysis assay
Description: as §1, §2, §3

[2] = concentrations of 25 μg/ml or greater
[3] = concentration required to inhibit 50% of PLA2, 30 min preincubation, read-out: IC50 (converted)

T3 sequence (P00592 23-146): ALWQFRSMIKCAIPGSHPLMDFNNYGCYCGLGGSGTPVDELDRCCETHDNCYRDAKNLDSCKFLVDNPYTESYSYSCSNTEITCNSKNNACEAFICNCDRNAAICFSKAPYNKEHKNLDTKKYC
T1 sequence (P04054 23-148): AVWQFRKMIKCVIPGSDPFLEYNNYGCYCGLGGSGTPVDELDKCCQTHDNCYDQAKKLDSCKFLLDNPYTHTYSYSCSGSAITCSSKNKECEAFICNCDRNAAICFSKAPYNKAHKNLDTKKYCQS

SMILES: CC1(O)c2cccc(O)c2C(=O)C2=C(O)C3(O)C(=O)C(C(N)=O)=C(O)CC3CC21 (centres unmarked) [CMT-1, 4-dedimethylaminotetracycline]
- inhibition of human pancreatic PLA2 (human pancreatic PLA2): inhibit
- IC50 [1]: 92.2 µM
- PLA2-inhibitory activity [1, 2]: significant PLA2 -inhibitory activity
- inhibition of porcine pancreatic PLA2 (porcine pancreatic PLA2): inhibit

SMILES: CN(C)C1C(=O)C(C#N)=C(O)C2(O)C(=O)C3=C(O)c4c(O)cccc4C(C)(O)C3CC12 (centres unmarked) [CMT-2, tetracyclinonitrile]
- PLA2-inhibitory activity ([1]; even at the highest concentrations tested (range 5-100 μg/ml)): lacked any PLA2 -inhibitory activity

SMILES: NC(=O)C1=C(O)C2(O)C(=O)C3=C(O)c4c(O)cccc4CC3CC2CC1=O (centres unmarked) [CMT-3, 6-demethyl-6-deoxy-4-dedimethylaminotetracycline]
- inhibition of human pancreatic PLA2 (human pancreatic PLA2): inhibit
- PLA2-inhibitory activity [1, 2]: significant PLA2 -inhibitory activity
- inhibition of porcine pancreatic PLA2 (porcine pancreatic PLA2): inhibit

SMILES: CC1(O)c2c(Cl)ccc(O)c2C(=O)C2=C(O)C3(O)C(=O)C(C(N)=O)=C(O)CC3CC21 (centres unmarked) [CMT-4, 4-de-dimethylamino-7-chloro-tetracycline]
- inhibition of human pancreatic PLA2 (human pancreatic PLA2): inhibit
- IC50 [1, 3]: 96.4 µM
- PLA2-inhibitory activity [1, 2]: significant PLA2 -inhibitory activity
- inhibition of porcine pancreatic PLA2 (porcine pancreatic PLA2): inhibit

SMILES: CC1(O)c2cccc(O)c2C(=O)C2=C(O)C3(O)C(=O)C(C(N)=O)=C(O)C(O)C3CC21 (centres unmarked) [CMT-6, 4-hydroxy-4-dedimethylaminotetracycline]
- inhibition of human pancreatic PLA2 (human pancreatic PLA2): inhibit
- IC50 [1, 3]: 40.7 µM
- PLA2-inhibitory activity [1, 2]: significant PLA2 -inhibitory activity
- inhibition of porcine pancreatic PLA2 (porcine pancreatic PLA2): inhibit

SMILES: CN(C)c1ccc(O)c2c1C(C)(O)C1CC3CC(O)=C(C(N)=O)C(=O)C3(O)C(O)=C1C2=O (centres unmarked) [CMT-10, 4-dedimethylamino-7-dimethylaminotetracycline]
- inhibition of human pancreatic PLA2 (human pancreatic PLA2): inhibit
- inhibition at 30 µg/mL (human pancreatic PLA2; concentration of 30 μg/ml): 66%
- inhibition at 5 µg/mL ([1]; CMT-10 5 μg/ml): 4 ± 4%
- inhibition at 10 µg/mL ([1]; CMT-10 10 μg/ml): 12 ± 2%
- inhibition at 25 µg/mL ([1]; CMT-10 25 μg/ml): 45 ± 1%
- inhibition at 50 µg/mL ([1]; CMT-10 50 μg/ml): 75 ± 2%
- inhibition at 100 µg/mL ([1]; CMT-10 100 μg/ml): 87 ± 2%
- IC50 [1, 3]: 67.5 µM
- PLA2-inhibitory activity [1, 2]: significant PLA2 -inhibitory activity
- inhibition of PLA2 activity ([1]; final concentration of 5 and 10 μg/ml): did not exhibit substantial inhibition
